Test [1] concerns the target T1, IKKα (Homo sapiens, UniProt O15111).
T1 construct: gene CHUK; purified Flag-IKKα
T1 sequence (O15111 1-745): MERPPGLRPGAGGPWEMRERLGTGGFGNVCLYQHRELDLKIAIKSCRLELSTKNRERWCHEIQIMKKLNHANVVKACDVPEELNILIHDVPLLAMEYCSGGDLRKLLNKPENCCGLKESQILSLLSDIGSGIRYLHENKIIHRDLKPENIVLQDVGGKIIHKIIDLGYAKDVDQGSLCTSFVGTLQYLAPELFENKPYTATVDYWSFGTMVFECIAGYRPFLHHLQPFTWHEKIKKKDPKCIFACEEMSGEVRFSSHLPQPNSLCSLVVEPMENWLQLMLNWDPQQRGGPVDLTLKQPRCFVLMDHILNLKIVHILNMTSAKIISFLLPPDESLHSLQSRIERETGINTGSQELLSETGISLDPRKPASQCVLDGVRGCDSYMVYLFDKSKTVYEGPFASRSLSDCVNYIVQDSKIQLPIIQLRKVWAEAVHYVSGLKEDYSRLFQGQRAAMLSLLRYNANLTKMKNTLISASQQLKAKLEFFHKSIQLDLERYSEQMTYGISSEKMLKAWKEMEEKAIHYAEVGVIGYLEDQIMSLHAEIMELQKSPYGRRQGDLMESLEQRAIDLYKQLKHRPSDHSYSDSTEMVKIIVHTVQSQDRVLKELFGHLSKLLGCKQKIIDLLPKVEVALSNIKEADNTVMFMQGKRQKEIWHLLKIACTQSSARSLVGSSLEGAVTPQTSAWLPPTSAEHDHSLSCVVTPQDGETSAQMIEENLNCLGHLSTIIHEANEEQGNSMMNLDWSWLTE
The test is described as follows: direct biotin labelling of purified protein, streptavidin pull-down and blot. It counts as binding.

The target of test [2] is T2, IKKβ (Homo sapiens, UniProt O14920).
T2 construct: gene IKBKB; purified Flag-IKKβ
T2 sequence (O14920 1-756): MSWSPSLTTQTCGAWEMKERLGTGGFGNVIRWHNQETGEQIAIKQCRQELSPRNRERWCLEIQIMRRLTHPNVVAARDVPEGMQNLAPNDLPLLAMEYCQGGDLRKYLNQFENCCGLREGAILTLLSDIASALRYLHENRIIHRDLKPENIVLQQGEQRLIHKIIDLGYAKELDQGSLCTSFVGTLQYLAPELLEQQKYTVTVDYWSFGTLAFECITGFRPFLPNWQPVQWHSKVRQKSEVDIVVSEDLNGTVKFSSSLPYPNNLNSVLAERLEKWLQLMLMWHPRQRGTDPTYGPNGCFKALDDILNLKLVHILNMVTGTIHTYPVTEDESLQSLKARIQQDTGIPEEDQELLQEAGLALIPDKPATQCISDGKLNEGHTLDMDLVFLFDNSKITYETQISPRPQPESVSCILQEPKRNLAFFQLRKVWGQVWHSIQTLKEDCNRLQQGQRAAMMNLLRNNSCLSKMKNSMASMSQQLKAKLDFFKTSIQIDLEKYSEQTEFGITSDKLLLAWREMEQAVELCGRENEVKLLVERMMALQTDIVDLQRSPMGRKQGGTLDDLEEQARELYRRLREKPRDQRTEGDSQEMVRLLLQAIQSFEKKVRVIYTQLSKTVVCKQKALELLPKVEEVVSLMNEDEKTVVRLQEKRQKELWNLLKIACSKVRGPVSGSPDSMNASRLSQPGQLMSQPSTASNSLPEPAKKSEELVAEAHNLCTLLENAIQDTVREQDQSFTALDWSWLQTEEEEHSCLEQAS
The test can be described thus: direct biotin labelling of purified protein, streptavidin pull-down and blot, competed by ainsliadimer A; time-dependent binding.

Molecules are shown by their SMILES.

As to `C=C1C(=O)O[C@@H]2[C@@H]3[C@@H](C[C@H](OC(=O)CCOCCOCCOCCNC(=O)CCCC[C@@H]4SC[C@@H]5NC(=O)N[C@@H]54)[C@]34CC[C@]3(O)[C@@H]5[C@H]6OC(=O)C(=C)[C@@H]6CCC(=C)[C@@H]5C[C@]43O)C(=C)CC[C@@H]12` [Probe], the “direct biotin labelling of purified protein, streptavidin pull-down and blot” value in test [1] is “suggesting that there is a strong interaction between Probe and recombinant IKKα”. For the same compound, the “direct biotin labelling of purified protein, streptavidin pull-down and blot, co” value in test [2] was “we also observed a similar interaction pattern between Probe and recombinant IKKβ (Fig. 4d)”.

These data come from paper PMC4389228, “Ainsliadimer A selectively inhibits IKKα/β by covalently binding a conserved cysteine” (Nature Communications, 2015).
